Paper PMC9814697, “β-Hydroxylation of α-amino-β-hydroxylbutanoyl-glycyluridine catalyzed by a nonheme hydroxylase ensures the maturation of caprazamycin” (Communications Chemistry, 2022)

Experiments:
Cpz27 = biological target: T1, Cpz27 (Streptomyces sp. MK730-62F2, UniProt C4NCL4); assay: LC-MS turnover; assay type: biochemical; conditions: 1 mM, with 500 μM compound 13, 1 mM Mg, pH 8.0, 28 °C
T1 construct: pGM1202, Streptomyces lividans TK64, His6-tag kept

Cpz15 = biological target: T2, Cpz15 (Streptomyces sp. MK730-62F2, UniProt C4NCK2); assay: LC-MS turnover; assay type: biochemical; conditions: 1 mM UMP, 1.5 mM αKG, ascorbate, FeSO4, pH 8.0, 28 °C; product uridine 5'-aldehyde
T2 construct: pET28a, E. coli BL21(DE3), His6-tag kept
T2 sequence (C4NCK2 1-274): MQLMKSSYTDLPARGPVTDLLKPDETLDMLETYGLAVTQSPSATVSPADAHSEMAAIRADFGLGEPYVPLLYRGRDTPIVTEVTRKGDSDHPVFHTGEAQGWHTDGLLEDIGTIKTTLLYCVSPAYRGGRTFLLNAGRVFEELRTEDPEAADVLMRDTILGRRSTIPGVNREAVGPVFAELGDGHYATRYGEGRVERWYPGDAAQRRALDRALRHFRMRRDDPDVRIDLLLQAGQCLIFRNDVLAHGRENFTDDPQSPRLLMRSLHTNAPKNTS

Cpz10 = biological target: T3, Cpz10 (Streptomyces sp. MK730-62F2, UniProt C4NCJ7); assay: X-ray crystal structure; assay type: binding
T3 construct: pET28a, E. coli BL21(DE3), His6-tag kept; homodimer in solution
T3 sequence (C4NCJ7 1-182): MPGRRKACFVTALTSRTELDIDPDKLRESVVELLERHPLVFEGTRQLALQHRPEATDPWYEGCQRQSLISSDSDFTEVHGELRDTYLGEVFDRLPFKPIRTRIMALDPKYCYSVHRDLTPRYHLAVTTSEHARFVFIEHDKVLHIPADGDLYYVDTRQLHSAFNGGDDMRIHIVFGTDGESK

[1] = substrate: CSCC[C@H](N)C(=O)O; assay: LC assay, Michaelis-Menten; assay type: biochemical, Streptomyces sp. MK730-62F2; conditions: pseudo-first order condition, αKG, ascorbate, FeSO4, pH 7.5, 28 °C, sulfoxidation to MSO

T1 sequence (C4NCL4 entry or part of it): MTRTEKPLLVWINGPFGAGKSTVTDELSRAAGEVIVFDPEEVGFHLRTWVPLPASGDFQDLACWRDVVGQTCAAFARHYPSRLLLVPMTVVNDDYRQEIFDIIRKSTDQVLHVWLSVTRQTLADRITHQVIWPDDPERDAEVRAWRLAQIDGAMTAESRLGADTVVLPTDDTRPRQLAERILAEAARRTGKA

For `Nc1ncnc2c1ncn2[C@@H]1O[C@H](COP(=O)(O)OP(=O)(O)OP(=O)(O)O)[C@@H](O)[C@H]1O` [ATP], the LC-MS turnover (Cpz27) was “at the expense of one molecule of ATP”.

In the case of `O=c1ccn([C@@H]2O[C@H](COP(=O)(O)O)[C@@H](O)[C@H]2O)c(=O)[nH]1` [UMP], the LC-MS turnover (Cpz15) is reported as “a new peak emerge on the LC trace concomitant with dwindling of UMP”.

With `O=C(O)CCC(=O)O` [succinic acid] the X-ray crystal structure (Cpz10; formed in crystal from soaked αKG, with compound 12 and Fe1) was “αKG soaked in the crystals has been converted to succinic acid”.

In the case of `O=C(O)CCC(=O)C(=O)O` [αKG], the X-ray crystal structure (Cpz10; Fe1 present, 1.9 Å, bidentate to Fe1) is reported as “two complexes (with αKG (PDB code: 7V4M)”.

B1: Cpz10 (Streptomyces sp. MK730-62F2) (protein)
chain: T3 sequence (C4NCJ7 1-182)
notes: pET28a, E. coli BL21(DE3), His6-tag kept; homodimer in solution
Molecule B1 has a Km [1] of 892.1 ± 9 µM and a kcat [1] of 0.977 ± 0.013 s⁻¹.
